Entries after “also recorded” stand apart in the source; their conditions may differ. Where two headings read alike, the source gives them in different places.
Columns and labels:
[1] = tested on: yeast cells; conditions: rad27Δ cells; cited from earlier work
[2] = tested on: yeast cells; assay: MMS sensitivity spot assay; format: cell-based, Saccharomyces cerevisiae; conditions: YPD plates, 30° C., 48 h
Protocol: FIG. 6. pol3 ITD-bearing rad27Δ revertant mutations or pol3 ITD knock-in of rad27Δ cells partially reverses MMS-induced lethality. Viability of WT, pol3 ITD knock-in, rad27Δ, rad27Δ with the pol3 ITD knock-in mutation, and a rad27Δ revertant carrying a pol3 ITD mutation was analyzed using spot assays. Yeast cells of the indicated genetic backgrounds were serially diluted and spotted on YPD plates containing the indicated level of MMS. The plates were incubated at 30° C. for 48 hours.
To assay the MMS sensitivity of different yeast strains, 0.005%, 0.01%, 0.015% or 0.02% MMS was added to YPD plates after autoclaving, and plates were used the same day. Yeast cells were serially diluted and spotted on YPD plates containing different levels of MMS. The plates were incubated at 30° C. for 48 h.

[3] = target: T1, Chk1 (Mus musculus, UniProt O35280); assay: Chk1 inhibition and lung cancer development in FEN1 FFAA mutant mice; format: in vivo; conditions: 0.025 mg/kg intraperitoneal once per week for four weeks from 6 months, lung tumors assessed at 16 months, vs DMSO
T1 construct: from tissue; host or cells: live mice (129S1 background), WT and FEN1 WT/FFAA heterozygotes
T1 sequence (O35280 1-476): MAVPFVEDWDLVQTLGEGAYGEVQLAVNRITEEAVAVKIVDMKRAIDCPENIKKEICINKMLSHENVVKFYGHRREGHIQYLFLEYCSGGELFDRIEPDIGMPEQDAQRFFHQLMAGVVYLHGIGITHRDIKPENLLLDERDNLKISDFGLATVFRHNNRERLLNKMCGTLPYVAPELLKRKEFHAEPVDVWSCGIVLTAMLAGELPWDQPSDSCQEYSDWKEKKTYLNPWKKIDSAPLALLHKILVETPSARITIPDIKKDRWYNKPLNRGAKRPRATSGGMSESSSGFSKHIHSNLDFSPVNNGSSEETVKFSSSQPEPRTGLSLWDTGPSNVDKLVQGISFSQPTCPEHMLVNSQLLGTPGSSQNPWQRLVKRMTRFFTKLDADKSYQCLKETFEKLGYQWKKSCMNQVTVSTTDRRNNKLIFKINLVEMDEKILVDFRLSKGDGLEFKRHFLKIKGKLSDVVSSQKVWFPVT
Excerpt: FEN1 F343A/F344A (FFAA) heterozygous mice (WT/FFAA, 129S1 genetic background), which develop lung adenoma or adenocarcinoma at a high frequency (32), were in-line bred and housed in the Animal Resource Center at City of Hope. All experimental protocols involving animals were approved by the Institutional Animal Care and Use Committee of City of Hope in compliance with the Public Health Service policies of the United States. To determine the extent to which inhibiting Chk1 suppressed cancer development in FEN1 FFAA mutant mice, randomly selected WT or WT/FFAA male or female mice (6 months old) were treated with 0.025 mg/kg body weight SB218078 (Chk1 inhibitor) in DMSO via intraperitoneal injection once per week for four weeks. Untreated control mice were injected with the same volume of DMSO (vehicle). All mice were euthanized at 16 months of age. The presence of lung tumors was determined using anatomic and histopathological analysis in blinding fashion. For whole exome sequencing (WES) studies, WT or FEN1 A159V/WT mice (33) were euthanized at 16 months, and normal lung or lung tumors were dissected for total genomic DNA extraction and purification.
Two-tailed student's t-test was used to determine significance in differences in mutation rate assays and the hypergeometric test was used to determine the significance in the enrichment of a signaling pathway. […]

| SMILES | MMS sensitivity of yeast cells [1] | MMS sensitivity of yeast cells ([2]; pol3 ITD cells in a WT RAD27 background, high concentrations of MMS) | MMS sensitivity of yeast cells ([2]; rad27Δ revertant cells and rad27Δ pol3 ITD knock-in mutant cells, higher concentrations (≥0.01%) MMS) | MMS sensitivity of yeast cells ([2]; rad27Δ revertant cells and rad27Δ pol3 ITD knock-in mutant cells, low concentration (0.005%) MMS) | spontaneous lung cancer development ([3]; WT mice) | spontaneous lung cancer development ([3]; WT/FFAA (FEN1 F343A/F344A heterozygous) mice, 0.025 mg/kg) |
| --- | --- | --- | --- | --- | --- | --- |
| COS(C)(=O)=O [MMS, methyl methanesulfonate] | sensitive | sensitive | sensitive | resistant | – | – |
| O=C1NC(=O)c2c1c1c3ccccc3n3c1c1c2c2ccccc2n1C1CCC3O1 [SB218078] | – | – | – | – | not in WT mice | significantly inhibited spontaneous lung cancer development; also recorded: blocks lung cancer development |
